# Species on record: Rattus norvegicus
# Assay: DrugMatrix - Regimen: Daily Repeat
# Type: toxicity, organism-based, Sprague-Dawley
# Design: regimen Daily Repeat, gender Male, age 6-8 weeks
# Details: in vivo, po, route oral GAVAGE, vehicle .5 % CMC; for ABSOLUTE BASOPHIL / ABSOLUTE EOSINOPHIL / ABSOLUTE LYMPHOCYTE / ABSOLUTE MONOCYTE / ABSOLUTE SEGMENTED NEUTROPHIL / BASOPHIL / EOSINOPHIL / ERYTHROCYTE COUNT / HEMATOCRIT / HEMOGLOBIN / LEUKOCYTE COUNT / LYMPHOCYTE / MEAN CORPUSCULAR HEMOGLOBIN / MEAN CORPUSCULAR HEMOGLOBIN CONCENTRATION / MONOCYTE / NEUTROPHIL / NUCLEATED RED BLOOD CELLS / PLATELET COUNT: tissue Blood; for ALANINE AMINOTRANSFERASE / ALBUMIN / ALKALINE PHOSPHATASE / ASPARTATE AMINOTRANSFERASE / BLOOD UREA NITROGEN / CARBON DIOXIDE / CHLORIDE / CHOLESTEROL / CREATININE / GLUCOSE / LACTATE DEHYDROGENASE / LIPASE / PHOSPHORUS / POTASSIUM / SODIUM / TOTAL BILIRUBIN / TOTAL PROTEIN / URIC ACID: tissue Plasma
# [1] = 50 mg/kg, 72 h, dose level Low, time 3 day
# [2] = 50 mg/kg, 120 h, dose level Low, time 5 day
# [3] = 600 mg/kg, 72 h, dose level High, time 3 day
# [4] = 600 mg/kg, 120 h, dose level High, time 5 day
structure (smiles),measurement,setting,value
N[C@@H]1[C@H]2CN(c3nc4c(cc3F)c(=O)c(C(=O)O)cn4-c3ccc(F)cc3F)C[C@@H]12 [TROVAFLOXACIN],ABSOLUTE BASOPHIL,[1],0 CELLS/uL
same,ABSOLUTE EOSINOPHIL,[1],332.33 CELLS/uL
same,ABSOLUTE LYMPHOCYTE,[1],13247 CELLS/uL
same,ABSOLUTE MONOCYTE,[1],338.33 CELLS/uL
same,ABSOLUTE SEGMENTED NEUTROPHIL,[1],2282.33 CELLS/uL
same,BASOPHIL,[1],0%
same,EOSINOPHIL,[1],2%
same,ERYTHROCYTE COUNT,[1],5.64 x10E6/uL
same,HEMATOCRIT,[1],34.17%
same,HEMOGLOBIN,[1],12.5 G/DL
same,LEUKOCYTE COUNT,[1],16.2 x10E3/uL
same,LYMPHOCYTE,[1],82%
same,MEAN CORPUSCULAR HEMOGLOBIN,[1],22.13 pg
same,MEAN CORPUSCULAR HEMOGLOBIN CONCENTRATION,[1],36.57 G/DL
same,MONOCYTE,[1],2%
same,NEUTROPHIL,[1],14%
same,NUCLEATED RED BLOOD CELLS,[1],0 /100WBC
same,PLATELET COUNT,[1],1160 x10E3/uL
same,ALANINE AMINOTRANSFERASE,[1],50.67 u/L
same,ALBUMIN,[1],4.23 G/DL
same,ALKALINE PHOSPHATASE,[1],421 u/L
same,ASPARTATE AMINOTRANSFERASE,[1],75.33 u/L
same,BLOOD UREA NITROGEN,[1],16 mg/dL
same,CARBON DIOXIDE,[1],27 mmol/L
same,CHLORIDE,[1],102.33 MEQ/L
same,CHOLESTEROL,[1],86.33 mg/dL
same,CREATININE,[1],0.17 mg/dL
same,GLUCOSE,[1],151 mg/dL
same,LACTATE DEHYDROGENASE,[1],114.67 u/L
same,LIPASE,[1],9.33 u/L
same,PHOSPHORUS,[1],13.33 mg/dL
same,POTASSIUM,[1],6.87 MEQ/L
same,SODIUM,[1],148.2 MEQ/L
same,TOTAL BILIRUBIN,[1],0.17 mg/dL
same,TOTAL PROTEIN,[1],6.3 G/DL
same,URIC ACID,[1],1.47 mg/dL
same,ABSOLUTE BASOPHIL,[2],0 CELLS/uL
same,ABSOLUTE EOSINOPHIL,[2],225.67 CELLS/uL
same,ABSOLUTE LYMPHOCYTE,[2],14834.67 CELLS/uL
same,ABSOLUTE MONOCYTE,[2],380.67 CELLS/uL
same,ABSOLUTE SEGMENTED NEUTROPHIL,[2],2392.33 CELLS/uL
same,BASOPHIL,[2],0%
same,EOSINOPHIL,[2],1.33%
same,ERYTHROCYTE COUNT,[2],5.73 x10E6/uL
same,HEMATOCRIT,[2],34.4%
same,HEMOGLOBIN,[2],12.63 G/DL
same,LEUKOCYTE COUNT,[2],17.83 x10E3/uL
same,LYMPHOCYTE,[2],82.67%
same,MEAN CORPUSCULAR HEMOGLOBIN,[2],22.13 pg
same,MEAN CORPUSCULAR HEMOGLOBIN CONCENTRATION,[2],36.73 G/DL
same,MONOCYTE,[2],2%
same,NEUTROPHIL,[2],14%
same,NUCLEATED RED BLOOD CELLS,[2],0 /100WBC
same,PLATELET COUNT,[2],1198 x10E3/uL
same,ALANINE AMINOTRANSFERASE,[2],44.67 u/L
same,ALBUMIN,[2],4 G/DL
same,ALKALINE PHOSPHATASE,[2],375.33 u/L
same,ASPARTATE AMINOTRANSFERASE,[2],95 u/L
same,BLOOD UREA NITROGEN,[2],15.33 mg/dL
same,CARBON DIOXIDE,[2],27.67 mmol/L
same,CHLORIDE,[2],100.33 MEQ/L
same,CHOLESTEROL,[2],77.67 mg/dL
same,CREATININE,[2],0.14 mg/dL
same,GLUCOSE,[2],165.33 mg/dL
same,LACTATE DEHYDROGENASE,[2],482.33 u/L
same,LIPASE,[2],9 u/L
same,PHOSPHORUS,[2],13.63 mg/dL
same,POTASSIUM,[2],6.38 MEQ/L
same,SODIUM,[2],144.47 MEQ/L
same,TOTAL BILIRUBIN,[2],0.13 mg/dL
same,TOTAL PROTEIN,[2],5.9 G/DL
same,URIC ACID,[2],2.13 mg/dL
same,ABSOLUTE BASOPHIL,[3],0 CELLS/uL
same,ABSOLUTE EOSINOPHIL,[3],206 CELLS/uL
same,ABSOLUTE LYMPHOCYTE,[3],11774.33 CELLS/uL
same,ABSOLUTE MONOCYTE,[3],306 CELLS/uL
same,ABSOLUTE SEGMENTED NEUTROPHIL,[3],3013.67 CELLS/uL
same,BASOPHIL,[3],0%
same,EOSINOPHIL,[3],1.33%
same,ERYTHROCYTE COUNT,[3],5.75 x10E6/uL
same,HEMATOCRIT,[3],34.53%
same,HEMOGLOBIN,[3],12.7 G/DL
same,LEUKOCYTE COUNT,[3],15.3 x10E3/uL
same,LYMPHOCYTE,[3],78.33%
same,MEAN CORPUSCULAR HEMOGLOBIN,[3],22.13 pg
same,MEAN CORPUSCULAR HEMOGLOBIN CONCENTRATION,[3],36.77 G/DL
same,MONOCYTE,[3],2%
same,NEUTROPHIL,[3],18.33%
same,NUCLEATED RED BLOOD CELLS,[3],0 /100WBC
same,PLATELET COUNT,[3],1258 x10E3/uL
same,ALANINE AMINOTRANSFERASE,[3],35.33 u/L
same,ALBUMIN,[3],4.27 G/DL
same,ALKALINE PHOSPHATASE,[3],290.67 u/L
same,ASPARTATE AMINOTRANSFERASE,[3],69.67 u/L
same,BLOOD UREA NITROGEN,[3],19.67 mg/dL
same,CARBON DIOXIDE,[3],25.33 mmol/L
same,CHLORIDE,[3],106.33 MEQ/L
same,CHOLESTEROL,[3],81.33 mg/dL
same,CREATININE,[3],0.16 mg/dL
same,GLUCOSE,[3],145 mg/dL
same,LACTATE DEHYDROGENASE,[3],197 u/L
same,LIPASE,[3],9.33 u/L
same,PHOSPHORUS,[3],13.8 mg/dL
same,POTASSIUM,[3],6.71 MEQ/L
same,SODIUM,[3],151.87 MEQ/L
same,TOTAL BILIRUBIN,[3],0.17 mg/dL
same,TOTAL PROTEIN,[3],6.43 G/DL
same,URIC ACID,[3],1.63 mg/dL
same,ABSOLUTE BASOPHIL,[4],0 CELLS/uL
same,ABSOLUTE EOSINOPHIL,[4],229.8 CELLS/uL
same,ABSOLUTE LYMPHOCYTE,[4],12826.8 CELLS/uL
same,ABSOLUTE MONOCYTE,[4],343 CELLS/uL
same,ABSOLUTE SEGMENTED NEUTROPHIL,[4],1100.4 CELLS/uL
same,BASOPHIL,[4],0%
same,EOSINOPHIL,[4],1.6%
same,ERYTHROCYTE COUNT,[4],5.94 x10E6/uL
same,HEMATOCRIT,[4],35.56%
same,HEMOGLOBIN,[4],12.98 G/DL
same,LEUKOCYTE COUNT,[4],14.5 x10E3/uL
same,LYMPHOCYTE,[4],88.4%
same,MEAN CORPUSCULAR HEMOGLOBIN,[4],21.88 pg
same,MEAN CORPUSCULAR HEMOGLOBIN CONCENTRATION,[4],36.5 G/DL
same,MONOCYTE,[4],2.4%
same,NEUTROPHIL,[4],7.6%
same,NUCLEATED RED BLOOD CELLS,[4],0 /100WBC
same,PLATELET COUNT,[4],1294.2 x10E3/uL
same,ALANINE AMINOTRANSFERASE,[4],42 u/L
same,ALBUMIN,[4],4.16 G/DL
same,ALKALINE PHOSPHATASE,[4],348.4 u/L
same,ASPARTATE AMINOTRANSFERASE,[4],67.4 u/L
same,BLOOD UREA NITROGEN,[4],17.8 mg/dL
same,CARBON DIOXIDE,[4],29.6 mmol/L
same,CHLORIDE,[4],102 MEQ/L
same,CHOLESTEROL,[4],83 mg/dL
same,CREATININE,[4],0.15 mg/dL
same,GLUCOSE,[4],156 mg/dL
same,LACTATE DEHYDROGENASE,[4],129.8 u/L
same,LIPASE,[4],9.8 u/L
same,PHOSPHORUS,[4],14.22 mg/dL
same,POTASSIUM,[4],6.78 MEQ/L
same,SODIUM,[4],146.28 MEQ/L
same,TOTAL BILIRUBIN,[4],0.14 mg/dL
same,TOTAL PROTEIN,[4],6 G/DL
same,URIC ACID,[4],1.88 mg/dL
